# Experiments:
# Type in all cases: cell-based
# AR = target: T1, AR (Homo sapiens, UniProt P10275); test: Steroid hormone specificity, androgenic activity in PC-3 cells; details: PC-3, ADEK at 0.01 mM, 0.1 mM and 1.0 mM, 24 h
# T1 construct: expressed in transfected cells; host or cells: PC-3
# T1 sequence (P10275 1-920): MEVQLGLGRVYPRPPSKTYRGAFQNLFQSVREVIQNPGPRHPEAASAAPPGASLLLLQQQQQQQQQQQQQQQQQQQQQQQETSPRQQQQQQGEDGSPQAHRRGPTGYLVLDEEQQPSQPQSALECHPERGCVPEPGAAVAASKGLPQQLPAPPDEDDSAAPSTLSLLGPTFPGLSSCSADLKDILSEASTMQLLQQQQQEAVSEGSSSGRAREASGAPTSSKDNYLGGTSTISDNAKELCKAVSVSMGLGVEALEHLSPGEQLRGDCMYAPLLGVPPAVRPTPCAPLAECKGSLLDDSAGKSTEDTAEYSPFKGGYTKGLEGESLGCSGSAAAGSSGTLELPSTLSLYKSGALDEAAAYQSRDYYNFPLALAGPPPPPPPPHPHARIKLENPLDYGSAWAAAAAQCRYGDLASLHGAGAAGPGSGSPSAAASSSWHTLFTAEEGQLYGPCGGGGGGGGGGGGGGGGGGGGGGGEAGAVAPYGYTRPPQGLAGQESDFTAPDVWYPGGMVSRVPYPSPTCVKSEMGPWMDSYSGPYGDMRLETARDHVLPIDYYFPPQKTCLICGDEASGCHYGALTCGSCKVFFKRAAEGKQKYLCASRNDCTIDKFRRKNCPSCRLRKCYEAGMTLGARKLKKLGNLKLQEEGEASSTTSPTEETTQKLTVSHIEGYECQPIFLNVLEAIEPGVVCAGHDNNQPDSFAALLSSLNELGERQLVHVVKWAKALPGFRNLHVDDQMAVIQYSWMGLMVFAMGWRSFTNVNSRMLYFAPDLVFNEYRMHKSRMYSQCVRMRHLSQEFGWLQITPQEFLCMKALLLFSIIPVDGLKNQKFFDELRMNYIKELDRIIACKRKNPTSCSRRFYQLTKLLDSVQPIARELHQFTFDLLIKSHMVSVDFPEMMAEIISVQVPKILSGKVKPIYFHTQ
# Method: Cell Culture, Transfection, and Reporter Gene Assay. The human prostate cancer cell lines, LNCaP, PC-3, and DU145, and non-prostate cancer cell line COS-1 were maintained in RPMI or Dulbecco's modified Eagle's medium (DMEM) (Life Technologies) supplemented with 10% fetal bovine serum (FBS). Transfections and luciferase (Luc) assays were performed as previously described (Miyamoto, H., Yeh, S., Wilding, G. & Chang, C. (1998) Proc. Natl. Acad. Sci. USA 95, 7379-7384; Miyamoto, H., Rahman, M., Takatera, H., Kang, H.-Y., Yeh, S., Chang, H.-C., Nishimura, K., Fujimoto, N. & Chang, C. (2002) J. Biol. Chem. 277, 4609-4617). Briefly, cells seeded to reach a density of 50-60% confluence in 12 well tissue culture plates were transfected with 1.5 μg of DNA according to “SuperFect transfection” instructions (Qiagen). […] The Luc activity was determined using a Dual-Luciferase Reporter Assay System (Promega) and luminometer.
# Steroid Hormone Specificity of ADEK. To characterize the steroid hormone activity of ADEK, PC-3 cells were transfected with steroid receptor/reporter (progesterone receptor (PR)/MMTV-Luc, glucocorticoid receptor (GR)/MMTV-Luc, or estrogen receptor (ER)/ERE-Luc) and analyzed for expression of the Luc reporter gene. […] The Luc activity was measured relative to that of ETOH treatment (set as 1-fold). […]
# wild-type AR [1] = target: T2, wild-type AR (Homo sapiens, UniProt P10275); test: AR transcriptional activity (androgenic activity), MMTV-Luc reporter in PC-3 cells transfected with wild-type AR; set-up: expressed in transfected cells; host or cells: PC-3; details: PC-3, wild-type AR plasmid + MMTV-Luc, compound at 1000 nM, 24 h
# T2 sequence (P10275 1-920): T1 sequence (P10275 1-920)
# Method: (§1) Cell Culture, Transfection, and Reporter Gene Assay. The human prostate cancer cell lines, LNCaP, PC-3, and DU145, and non-prostate cancer cell line COS-1 were maintained in RPMI or Dulbecco's modified Eagle's medium (DMEM) (Life Technologies) supplemented with 10% fetal bovine serum (FBS). Transfections and luciferase (Luc) assays were performed as previously described (Miyamoto, H., Yeh, S., Wilding, G. & Chang, C. (1998) Proc. Natl. Acad. Sci. USA 95, 7379-7384; Miyamoto, H., Rahman, M., Takatera, H., Kang, H.-Y., Yeh, S., Chang, H.-C., Nishimura, K., Fujimoto, N. & Chang, C. (2002) J. Biol. Chem. 277, 4609-4617). Briefly, cells seeded to reach a density of 50-60% confluence in 12 well tissue culture plates were transfected with 1.5 μg of DNA according to “SuperFect transfection” instructions (Qiagen). After 2-3 h incubation, cells were treated with medium supplemented with charcoal-stripped FBS containing either ethanol or ligands for 24 h. The cells were then harvested and whole cell extracts were used for Luc assay. The Luc activity was determined using a Dual-Luciferase Reporter Assay System (Promega) and luminometer.
# Anti-DHT Effect of DHEA Derivatives with Low Androgenic Activity on AR Transcription. Test compounds as antiandrogenic compounds, were characterized by analysis of their ability to induce AR transcriptional activity in the AR-negative PC-3 cell line. The Luc activity was determined in the cell extracts with transient transfection of wild-type AR plasmid and androgen response element-reporter plasmid (mouse mammary tumor virus (MMTV)-Luc). After transfection, the cells were treated with various compounds at 0.1-1,000 nM.
# (§2) To accomplish these studies, PC-3 cells were transfected with the wild-type AR expression plasmid pSG5-AR and MMTV-Luc. […] The Luc activity was measured relative to that of ethanol treatment (set as 1-fold). Values from the mean±SD of at least three determinations were used. PC-3 cells were transfected with the pSG5-AR and MMTV-Luc. […] Values from the mean±SD of at least three determinations were obtained.
# wild-type AR [2] = target: T2, wild-type AR; test: Anti-DHT activity on AR transcription, MMTV-Luc reporter in PC-3 cells transfected with AR; set-up: expressed in transfected cells; host or cells: PC-3; details: PC-3, 1 nM DHT, compound at 0.01, 0.1 or 1 μM, dose-dependent
# Method: as §1, §2
# wild-type AR [3] = target: T2, wild-type AR; test: AR transcription, MMTV-Luc reporter in COS-1 cells co-transfected with pSG5-AR; set-up: expressed in transfected cells; host or cells: COS-1
# Method: Cell Culture, Transfection, and Reporter Gene Assay. The human prostate cancer cell lines, LNCaP, PC-3, and DU145, and non-prostate cancer cell line COS-1 were maintained in RPMI or Dulbecco's modified Eagle's medium (DMEM) (Life Technologies) supplemented with 10% fetal bovine serum (FBS). […] Briefly, cells seeded to reach a density of 50-60% confluence in 12 well tissue culture plates were transfected with 1.5 μg of DNA according to “SuperFect transfection” instructions (Qiagen). After 2-3 h incubation, cells were treated with medium supplemented with charcoal-stripped FBS containing either ethanol or ligands for 24 h. The cells were then harvested and whole cell extracts were used for Luc assay. The Luc activity was determined using a Dual-Luciferase Reporter Assay System (Promega) and luminometer.
# The pSG5-AR was co-transfected in COS-1 cells. […] Values were obtained from the mean±SD of at least three determinations. DU145 cells were transfected with the pSG5-AR and MMTV-Luc in the presence or absence of pSG5-ARA70. […] Values were obtained for the mean±SD of at least three determinations.
compound,measurement,setting,value
"CC(=O)O[C@H]1C=C[C@@]2(C)C(=CC[C@@H]3[C@@H]2CC[C@@]2(C)[C@H]3CCC23OCCO3)C1 [ADEK, 3β-acetoxy-17,17-ethylenedioxyandrosta-1,5-diene]",androgenic activity (in words),AR,no significant
same,induction on AR transcription as compared to mock treatment,wild-type AR [1],marginal induction
same,DHT-induced AR transactivation suppressed to (Luc activity relative to DHT = 100%),wild-type AR [2],30%
same,relative Luc activity (DHT control = 100%),"wild-type AR [3]; COS-1, 1 nM DHT, compound at 0.01 μM",about 75%
same,relative Luc activity (DHT control = 100%),"wild-type AR [3]; COS-1, 1 nM DHT, compound at 0.1 μM",about 60%
same,"DHT-induced wild-type AR transcription suppressed to (relative Luc activity, DHT = 100%)","wild-type AR [3]; COS-1, 1 nM DHT, compound at 1 μM",21%
same,androgenic activity on wild-type AR transcription (in words),"wild-type AR [3]; COS-1, compared with HF and casodex",lower androgenic activity

# — patent US7638509B2, “Diene compounds and formulations” (priority 2003, dated 2009)
